Data on six molecules can be found in US6497872B1, “Neural transplantation using proliferated multipotent neural stem cells and their progeny” (NeuroSpheres Holdings Ltd., priority 1991, dated 2002).

Assay [1] has as its system relatively quiescent neural stem cells in subependyma. Description: 3H-thymidine kill, number of neurospheres formed in vitro (Example 26). It counts as in vivo, mouse. The method, then:
As detailed in Example 26 below, an experiment was performed to determine whether the in vitro stem cell is derived from the constitutively proliferating population or from the quiescent population. Animals were treated in one of the following ways: […] Adult male CD1 mice were divided into 4 groups. Group A animals received a series of 3H-thymidine injections on day 0 (3 injections, 1 every 4 hours). Animals in groups B and C received a series of 3H-thymidine injections on day 0 followed by a second series of injections on day 2 or 4. Group D animals received injections of physiological saline instead of 3H-thymidine over the same time course as group A. Animals from all groups were sacrificed by cervical dislocation 16-20 hours following the last series of injections. Brains were removed and neural tissue obtained from the subependyma surrounding the lateral ventricles in the forebrain was dissociated and the neural cells cultured as described in Example 5. At 6 and 8 days in vitro, the total number of spheres was counted in each of the 35 mm wells.

For assay [2], the system named is constitutively proliferating subependymal cells. Description: 3H-thymidine kill of constitutively proliferating subependymal cells, BrdU count (Example 24). It counts as in vivo, mouse. Further details: concentration or dose not given beside the values. On the procedure: Adult male CD1 mice received a series of intraperitoneal injections of 3H-thymidine (0.8 ml per injection, specific activity 45-55 mCi/mmole, ICN Biomedical) on day 0 (3 injections, 1 every 4 hours) in order to kill the constitutively proliferating subependymal cells. On day 0.5, 1, 2, 4, 6, 8 or 12, animals received 2 BrdU injections 1 hour apart (see Example 25) and were sacrificed 0.5 hour after the last injection. In a second group of animals, 3H-thymidine injections were given on day 0 (3 injections, 1 every 4 hours), followed by an identical series of injections on day 2 or 4. Animals were allowed to survive for 8 days following the second series of injections ([…] and 12 respectively) at which time they received 2 injections of BrdU and were sacrificed 0.5 hours later. Animals were sacrificed and the brains were removed and processed as described in Example 25.

The next assay has as its system Primary striatal cells. As to the kind of experiment: Striatum-derived neurosphere proliferation in response to proliferative and regulatory factors (Example 43, Paradigm 1). The format is cell-based, mouse. The note with it: for Numbers of neurospheres generated (#): decrease (−) or increase (+) per well compared with absence of the REGULATORY FACTOR: 10-12 days; for numbers of neurospheres generated: in all of the proliferative factors or combinations tested. On the procedure: Paradigm 1: Primary striatal cells prepared as outlined in Example 1 were suspended in Complete Medium, without growth factors, plated in 96 well plates (Nunclon) and incubated as described in Example 4. Following a one hour incubation period, a specific proliferative factor, or a combination of proliferative factors including EGF, or bFGF (recombinant human bFGF: R & D Systems), or a combination of EGF and bFGF, or EGF plus FGF plus heparan sulfate (Sigma), or bFGF plus heparan sulfate made up in Complete Medium at a concentration of 20 ng/ml for each of the growth factors and 2 μg/ml for heparan sulfate), was added to each well of the plate.
Retinoic acid (Sigma) was added at a concentration of 10^−6 M. 10 μl of one of these regulatory factor-containing solutions was added to each proliferative factor-containing well of the 96 well plates. Control wells, containing only proliferative factors, were also prepared. […]
IL-2, IL-6, IL-8, MIP-1∂, MIP-1β, MIP-2, TNFα and EGF additions were repeated every second day, CNTF which was added each day and retinoic acid, NGF and PDGF were added only once, at the beginning of the experiment. The cells were incubated for a period of 10-12 days. The number of neurospheres in each well was counted and the resulting counts tabulated using Cricket Graph III. Other relevant information regarding sphere size and shape were also noted.

For assay [3], the system named is EGF-generated neurospheres. As to the kind of experiment: Effect of growth factors on neurosphere differentiation, immunocytochemistry (Example 8). The format is cell-based, mouse. On the procedure:
Six to 8 days after the first passage, the neurospheres were removed and centrifuged at 400 r.p.m. The EGF-containing supernatant was removed and the pellet suspended in EGF-free complete medium containing 1% FBS. Neurospheres (approximately 0.5-1.0×10^6 cells/well) were plated on poly-L-ornithine-coated (15 μg/ml) glass coverslips in 24 well Nuclon (1.0 ml/well) culture dishes. After 24 hours in culture, the coverslips were transferred to 12 well (Costar) culture dishes containing complete medium containing 0.5% FBS. The medium was changed every 4-7 days. This differentiation procedure is referred to as the “Rapid Differentiation Paradigm” or RDP.
Six to 8 days after the first passage, the neurospheres were removed and centrifuged at 400 r.p.m. The EGF-containing media was removed and the pellet was suspended in EGF-free complete medium containing 1% FBS. The neurospheres were mechanically dissociated into single cells with a fire-polished Pasteur pipette and centrifuged at 800 r.p.m. for 5 minutes. Between 0.5×10^6 and 1.0×10^6 cells were plated on poly-L-ornithine-coated (15 μg/ml) glass coverslips in 24 well Nuclon (1.0 ml/well) culture dishes. The EGF-free culture medium containing 1% FBS was changed every 4-7 days.
Neurospheres were washed free of EGF by serial transfers through changes of EGF-free medium. A single neurosphere was plated onto poly-L-ornithine-coated (15 μg/ml) glass coverslips in a 24-well plate. The culture medium used was complete medium with or without I % FBS. The medium was changed every 4-7 days.
Neurospheres were washed free of EGF by serial transfers through changes of EGF-free medium. A single neurosphere was mechanically dissociated in a 0.5 ml Eppendorf centrifuge tube and all the cells were plated onto a 35 mm culture dish. Complete medium was used with or without 1% FBS.
The effects of CNTF, FGF-2, BDNF, and retinoic acid on neurosphere differentiation were tested using the differentiation paradigms set forth in Example 7.
The effect of CNTF was assayed in paradigms 1 and 3. For both paradigms, CNTF was added either at the beginning of the experiment at a concentration of 10 ng/ml or daily at a concentration of 1 ng/ml.
Three different antibodies directed against 04, galactocerebroside (GalC) and MBP were used to study the effect of CNTF on the oligodendrocytes of paradigm 1. CNTF had no effect on the number of 04(+) cells, but there was an increase in the number of GalC(+) and MBP(+) cells compared with the control. Thus it appears that CNTF plays a role in the maturation of oligodendrocytes.
The effect of FGF-2 was tested using paradigms 2 and 4. In paradigm 2, 20 ng/ml of FGF-2 was added at the beginning of the experiment and cells were stained 7 days later. FGF-2 increased the number of GFAP(+) cells and the number of NSE(+) cells.
In paradigm 4, 20 ng/ml of FGF-2 was added at the beginning of the experiment and assayed 7-10 days later. […] It induced two different cell types to divide, neuroblasts and bipotential progenitor cells. The neuroblast produced, on average, 6 neurons while the bipotential cell produced approximately 6 neurons and a number of astrocytes.

Where [4] appears, read: PROLIFERATIVE FACTOR EGF 20 ng/ml.
Setting [5] is: PROLIFERATIVE FACTOR bFGF 20 ng/ml.
The mark [6] stands for this setting: PROLIFERATIVE FACTORS EGF + bFGF + Heparan.
Where [7] appears, read: PROLIFERATIVE FACTORS EGF + bFGF.
The mark [8] stands for this setting: PROLIFERATIVE FACTORS bFGF + Heparan.
Setting [9] is: paradigm 1, CNTF 10 ng/ml at beginning or 1 ng/ml daily.

With `Cc1cn([C@H]2C[C@H](O)[C@@H](CO)O2)c(=O)[nH]c1=O` [3H-thymidine], the “Number of Neurospheres produced in vitro relative to control” value in assay [1] (high doses on day 0) is on record as “the same number of spheres”; in assay [1] (high doses on day 0, listed as radioactive thymidine) it was 100%; in assay [1] (high doses on day 0 and day 2), 45%; in assay [1] (high doses on day 0 and day 2, listed as radioactive thymidine), 45%; in assay [1] (high doses on day 0 and day 4), “not significantly different from control values”; in assay [1] (high doses on day 0 and day 4, listed as radioactive thymidine), 85%. Also, the “proliferating subependymal population relative to controls” value in assay [2] (one kill on day 0, 8 days) is 85%; in assay [2] (one kill on day 0, 8 days, listed as radioactive thymidine), “back to control levels”; in assay [2] (one kill on day 0, day 1 post-kill) it was 10%; in assay [2] (second kill on day 2, 8 days later), 45%; in assay [2] (second kill on day 2, 31 days after the second kill), 63%; in assay [2] (second kill on day 4, 8 days later) it was “return to control values”. Moreover, in assay [2] (second kill on day 4, 8 days later, listed as radioactive thymidine), the “proliferating subependymal population relative to controls” value was 85%.

In the case of TNFα, the “Numbers of neurospheres generated (#): decrease (−) or increase (+) per well compared with absence of the REGULATORY FACTOR” value with Primary striatal cells (setting [4]) is −17%; in the assay with Primary striatal cells (setting [5]), −17%; in the assay with Primary striatal cells (setting [6]), −37%; with Primary striatal cells (setting [7]) it was −41%; in the assay with Primary striatal cells (setting [8]), −21%. In addition, in the assay on Primary striatal cells, the “numbers of neurospheres generated” value is listed as “significantly reduced”.

Turning to heparan sulfate [reference compound], the “Numbers of neurospheres generated (#): decrease (−) or increase (+) per well compared with absence of the REGULATORY FACTOR” value in the assay on Primary striatal cells (setting [4]), in the assay with Primary striatal cells (setting [5]) and in the assay on Primary striatal cells (setting [7]) was 0% in each case. The “Size of neurospheres compared to PROLIFERATIVE FACTORS alone” value in the assay on Primary striatal cells (PROLIFERATIVE FACTOR bFGF) was “++”. Also, the “increase in size of the neurospheres formed in response to bFGF” value in the assay on Primary striatal cells (added to bFGF) is “about 400%”. Moreover, the “size of neurospheres relative to those which occur in response to EGF” value in the assay with Primary striatal cells (heparan sulfate 2 μg/ml added to bFGF generated spheres) is “approximately 70%”.

For `CC1=C(/C=C/C(C)=C/C=C/C(C)=C/C(=O)O)C(C)(C)CCC1` [Retinoic Acid, retinoic acid, reference compound], the “Numbers of neurospheres generated (#): decrease (−) or increase (+) per well compared with absence of the REGULATORY FACTOR” value in the assay on Primary striatal cells (setting [4]) is listed as −8%; with Primary striatal cells (setting [5]), −61%; in the assay with Primary striatal cells (setting [6]), −45%; in the assay on Primary striatal cells (setting [7]) it was −31%; with Primary striatal cells (setting [8]), −65%. Besides, the “Size of neurospheres compared to PROLIFERATIVE FACTORS alone” value in the assay on Primary striatal cells (PROLIFERATIVE FACTOR bFGF) is “−”.

Take PDGF: the “Numbers of neurospheres generated (#): decrease (−) or increase (+) per well compared with absence of the REGULATORY FACTOR” value is on record as −1.5% in the assay on Primary striatal cells (setting [4]); −4% with Primary striatal cells (setting [5]); −27% in the assay on Primary striatal cells (setting [6]); −26% with Primary striatal cells (setting [7]); −10% in the assay on Primary striatal cells (setting [8]). Besides, the “numbers of neurospheres generated” value in the assay with Primary striatal cells was “significantly reduced”.

B1: CNTF: ciliary neurotrophic factor (protein, UniProt P26441 1-200, looked up)
Ciliary neurotrophic factor: MAFTEHSPLTPHRRDLCSRSIWLARKIRSDLTALTESYVKHQGLNKNINLDSADGMPVASTDQWSELTEAERLQENLQAYRTFHVLLARLLEDQQVHFTPTEGDFHQAIHTLLLQVAAFAYQIEELMILLEYKIPRNEADGMPINVGDGGLFEKKLWGLKVLQELSQWTVRSIHDLRFISSHQTGIPARGSHYIANNKKM
As for B1, the “Size of neurospheres compared to PROLIFERATIVE FACTORS alone” value in the assay with Primary striatal cells (PROLIFERATIVE FACTOR EGF) and in the assay with Primary striatal cells (setting [8]) was “−” throughout. Moreover, the “Numbers of neurospheres generated (#): decrease (−) or increase (+) per well compared with absence of the REGULATORY FACTOR” value in the assay with Primary striatal cells (setting [4]) was −23%; in the assay on Primary striatal cells (setting [5]) it was −77%; in the assay on Primary striatal cells (setting [6]), −84%; with Primary striatal cells (setting [7]), −81%; in the assay on Primary striatal cells (setting [8]), −81%. For the same molecule, the “numbers of neurospheres generated” value in the assay with Primary striatal cells is “significantly reduced”. Also, in assay [3] (paradigm 1), the “number of GalC(+) cells compared with control” value is reported as “increase”. The “number of MBP(+) cells compared with control” value in assay [3] (paradigm 1) is listed as “increase”. Moreover, the “number of O4(+) cells” value in assay [3] (paradigm 1) was “no effect”. Besides, in assay [3] (setting [9]), the “number of NSE-immunoreactive cells” value is “increased”. In assay [3] (setting [9]), the “number of tau-1-immunoreactive cells” value was “increased”. Also, the “number of cells containing GABA and substance P” value in assay [3] (paradigm 1, preliminary testing) is “no increase”. For the same molecule, the “proliferation of flat, protoplasmic astrocytes” value in assay [3] (paradigm 1 without serum) was “increase”. Also, the “number of NSE(+) cells” value in assay [3] (paradigm 3, CNTF) is on record as “increase”.
